According to patent US20260374766A1, “METHODS FOR TREATING CANCER” (Antares Therapeutics, Inc., priority 2022, published 2026):
Read-outs that look alike come from different tables or passages of the source.

Legend:
[1] = test system: H1299 p53 Y220C; test: Cell Proliferation Assay (CellTiter-Glo, CTG), H1299 p53 Y220C (NClH1299-inducible p53 Y220C); assay type: cell-based; details: Homo sapiens, NCI-H1299, 120 h, CellTiter-Glo, H1299 p53 Y220C, 5 days
In short: (§1)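 NClH1299 lines stably transduced with Tet-inducible p53 Y220C or R273H, plus NUGC3, were treated with compound for 5 days at 250-500 cells/well. IC50 derived from CellTiter-Glo luminescent signal after 10 min room-temperature incubation.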

[2] = target: T1, p53 Y220C mutant protein (amino acid residues 94-293) (Homo sapiens, UniProt P04637, Y220C); test: Thermal Shift Assay (TSA), dTM; assay type: binding; details: thermal shift; for ΔTm at 10 µM: 10 uM compound, read-out: TSA P53 Y220C dTM (10 uM); for ΔTm at 100 µM: 100 uM compound, read-out: TSA P53 Y220C dTM (100 uM)
T1 construct: p53 Y220C mutant protein (amino acid residues 94-293)
In short: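 TM is derived by fitting Sypro Orange melt curves (30 °C to 50 °C, 0.03 °C/second) to a Boltzmann two-state model. Beforehand, 5 μM p53 Y220C (94-293) sits with 10 μM or 100 μM compound for 3 hours at 20 °C in HEPES pH7.4 buffer containing 100 mM NaCl and 1% DMSO.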

[3] = test system: H1299 p53 R273H; test: Cell Proliferation Assay (CellTiter-Glo, CTG), H1299 p53 R273H (NClH1299-inducible p53 R273H); assay type: cell-based; details: Homo sapiens, NCI-H1299, 120 h, CellTiter-Glo, H1299 p53 R273H, 5 days
In short: as §1

[4] = target: T1, p53 Y220C mutant protein (amino acid residues 94-293); test: Surface Plasmon Resonance (SPR) assay, Kd_kinetic; assay type: binding
In short: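 Temperature held at 16 or 20 °C during Biacore 8K runs. Buffer: 50 mM Tris, pH 7.5, 100 mM NaCl, 1 mM DTT, 0.01% Brij35, 0.05% Tween-20, 1% DMSO.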

[5] = test system: NUGC3 p53 Y220C; test: Cell Proliferation Assay (CellTiter-Glo, CTG), NUGC3 p53 Y220C; assay type: cell-based; details: Homo sapiens, NUGC-3, 120 h, CellTiter-Glo, NUGC3 p53 Y220C, 5 days
In short: as §1

[6] = target: p53 Y220C (Homo sapiens, UniProt P04637, Y220C); test: Luciferase Reporter Assay (Luc), p53 response element, NClH1299 cells with inducible p53 Y220C; assay type: cell-based; details: for Emax: 10 uM tool compound as positive control
In short: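 Doxycycline (0.5 ug/mL, 24 h) induces the mutant before a 6-hour compound treatment. Reporter activity is then quantified by One-Glo luminescence.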

[7] = SPR, kinetic KD, p53 Y220C, read-out: SPR P53 Y220C KD kinetic
[8] = luciferase reporter, NClH1299 inducible p53 Y220C, 6 hour
[9] = luciferase reporter, NClH1299 inducible p53 Y220C, 6 hour, read-out: Luc P53 Y220C AC50

| SMILES | IC50 [1] [µM] | ΔTm at 10 µM [2] [°C] | ΔTm at 100 µM [2] [°C] | IC50 [3] [µM] | Kd [4, 7] [µM] | IC50 [5] [µM] | Emax [6, 8] [%] | AC50 [6, 9] [µM] | Kd [4] [µM] | AC50 [6] [µM] | Kd ([4]; read-out: SPR P53 Y220C KD kinetic) [µM] |
| --- | --- | --- | --- | --- | --- | --- | --- | --- | --- | --- | --- |
| CNC(=O)c1ccc(NCC#Cc2nc3c(N[C@@H]4CCc5nncn5C4)cccn3c2SC(F)(F)F)c(OC)c1 [Example 192] | > 3 | ≥ 10 | ≥ 10 | ≥ 10 | < 0.01 | > 3 | < 70 | > 3 | – | – | – |
| CNC(=O)c1ccc(OC)c(NCC#Cc2nc3c(N[C@@H]4CCNC[C@@H]4F)cccn3c2SC(F)F)n1 [Example 193] | < 0.75 | ≥ 10 | ≥ 10 | 8 to 10 | 0.01 to 0.1 | < 0.75 | 70 to 80 | < 0.75 | – | – | – |
| CNC(=O)c1ccc(OC)c(NCC#Cc2nn3c(N[C@@H]4CCN(C)C[C@@H]4F)cccc3c2SC(F)F)c1 [Example 194] | < 0.75 | ≥ 10 | 5 to 10 | 5 to 8 | < 0.01 | < 0.75 | > 90 | < 0.75 | – | – | – |
| CNC(=O)c1ccc(OC)c(NCC#Cc2nn3c(N[C@@H]4CCNC[C@@H]4F)cccc3c2SC(F)F)c1 [Example 195] | < 0.75 | ≥ 10 | ≥ 10 | 5 to 8 | < 0.01 | < 0.75 | 80 to 90 | < 0.75 | – | – | – |
| CNC(=O)c1ccc(NCC#Cc2cc3c(N[C@@H]4CCN(C)C[C@@H]4F)nccn3c2SC(F)F)c(OC)c1 [Example 196, 4-[(3-{6-[(difluoromethyl)sulfanyl]-1-{[(3S,4R)-3-fluoro-1-methylpiperidin-4-yl]amino}pyrrolo[1,2-a]pyrazin-7-yl}prop-2-yn-1-yl)amino]-3-methoxy-N-methylbenzamide; formic acid] | < 0.75 | ≥ 10 | ≥ 10 | ≥ 10 | < 0.01 | < 0.75 | > 90 | < 0.75 | – | – | – |
| CNC(=O)c1ccc(NCC#Cc2nc3c(NCC4(F)CNC4)cccn3c2SC(F)(F)F)c(OC)c1 [Example 197] | > 3 | 5 to 10 | ≥ 10 | ≥ 10 | 0.01 to 0.1 | > 3 | 80 to 90 | > 3 | – | – | – |
| CNC(=O)c1ccc(OC)c(NCC#Cc2nc3c(N[C@@H]4C[C@H]5CC[C@@H]([C@@H]4F)N5C)cccn3c2SC(F)(F)F)c1 [Example 199] | < 0.75 | ≥ 10 | ≥ 10 | < 5 | < 0.01 | < 0.75 | 70 to 80 | < 0.75 | – | – | – |
| CNC(=O)c1ccc(OC)c(NCC#Cc2nc3c(N[C@H]4C[C@@H]5CC[C@H]([C@H]4F)N5C)cccn3c2SC(F)(F)F)c1 [Example 200] | < 0.75 | ≥ 10 | ≥ 10 | ≥ 10 | < 0.01 | < 0.75 | 70 to 80 | < 0.75 | – | – | – |
| CNC(=O)c1ccc(NCC#Cc2nc3c(N[C@H]4C[C@@H]5CC[C@@H](N5)[C@H]4F)cccn3c2SC(F)(F)F)c(OC)c1 [Example 201] | < 0.75 | ≥ 10 | ≥ 10 | 5 to 8 | < 0.01 | < 0.75 | 80 to 90 | < 0.75 | – | – | – |
| CNC(=O)c1ccc(OC)c(NCC#Cc2nc3c(N[C@@H]4C[C@H]5CC[C@H](N5)[C@@H]4F)cccn3c2SC(F)(F)F)c1 [Example 202] | < 0.75 | ≥ 10 | ≥ 10 | 8 to 10 | < 0.01 | < 0.75 | 70 to 80 | < 0.75 | – | – | – |
| CNC(=O)c1ccc(OC)c(NCC#Cc2nc3c(N[C@H]4C[C@@H]5CC[C@@H](N5)[C@H]4F)cccn3c2SC(F)(F)F)c1 [Example 203] | < 0.75 | ≥ 10 | ≥ 10 | 5 to 8 | < 0.01 | < 0.75 | 70 to 80 | < 0.75 | – | – | – |
| CNC(=O)c1ccc(OC)c(NCC#Cc2nc3c(NC4CC5(C4)CN(CC(F)F)C5)cccn3c2SC(F)(F)F)c1 [Example 204] | 0.75 to 1.5 | 5 to 10 | ≥ 10 | ≥ 10 | – | 0.75 to 1.5 | > 90 | – | < 0.01 | 0.75 to 1.5 | – |
| CNC(=O)c1ccc(NCC#Cc2nc3c(N[C@@H]4CCN(C)C[C@@H]4F)nccn3c2SC(F)(F)F)c(OC)c1 [Example 206, 4-{[3-(8-{[(3S,4R)-3-fluoro-1-methylpiperidin-4-yl]amino}-3-[(trifluoromethyl)sulfanyl]imidazo[1,2-a]pyrazin-2-yl)prop-2-yn-1-yl]amino}-3-methoxy-N-methylbenzamide] | < 0.75 | ≥ 10 | ≥ 10 | ≥ 10 | < 0.01 | < 0.75 | > 90 | < 0.75 | – | – | – |
| CNC(=O)c1ccc(OC)c(NCC#Cc2cc3c(N[C@@H]4CCN(C)C[C@@H]4F)nccn3c2SC(F)(F)F)n1 [Example 207] | < 0.75 | ≥ 10 | – | ≥ 10 | < 0.01 | < 0.75 | > 90 | < 0.75 | – | – | – |
| CNC(=O)c1ccc(OC)c(NCC#Cc2nc3c(N[C@@H]4CCN(C)C[C@@H]4F)nccn3c2SC(F)(F)F)c1 [Example 212] | < 0.75 | ≥ 10 | – | ≥ 10 | < 0.01 | < 0.75 | 80 to 90 | < 0.75 | – | – | – |
| CNC(=O)c1ccc(OC)c(NCC#Cc2nc3c(N[C@@H]4CCN(C)C[C@@H]4F)cccn3c2CC(F)(F)F)n1 [Example 213] | < 0.75 | ≥ 10 | ≥ 10 | ≥ 10 | – | < 0.75 | 70 to 80 | < 0.75 | – | – | < 0.01 |
| CNC(=O)c1ccc(NCC#Cc2nn3c(N[C@@H]4CCN(C)C[C@@H]4F)nccc3c2SC(F)F)c(OC)c1 [Example 215] | < 0.75 | ≥ 10 | – | ≥ 10 | < 0.01 | < 0.75 | > 90 | < 0.75 | – | – | – |
